Laboratory results published in patent publication US9745289B2, “Aldosterone synthase inhibitors” (Boehringer Ingelheim International GmbH, priority 2014, dated 2017).
“And” between values parts separate entries of the source, which are not always exact repeats. Equal entries are not always repeated.

target: cortisol synthase (CYP11B1) (Macaca fascicularis, UniProt A0A2K5ULY1); assay: Inhibition of Cortisol Synthesis; assay type: biochemical, cynomolgus monkey; conditions: cynomolgus adrenal gland mitochondria; 150 units of CYP11B1, 11-deoxycortisol as substrate, cortisol measured as product
How it was run: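 Cynomolgus adrenal mitochondria as enzyme source (1 unit = 1 pmol product/h); 150 units CYP11B1 with 11-deoxycortisol substrate in 100 mM potassium phosphate pH 7.4, 1% DMSO, started with 1 mM NADPH, 90 min at 37 °C. Cortisol quantified by mass spectrometry; no-NADPH blank as 0%, no-compound as 100% activity.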

Row | SMILES | IC50
1 | NC(=O)c1cccc2c1OCC(c1cncc(C(O)C(F)(F)F)c1)O2 (single isomer, unassigned) [Cpd 49BA, 2-[5-(2,2,2-Trifluoro-1-hydroxy-ethyl)-pyridin-3-yl]-2,3-dihydro-benzo[1,4]dioxine-5-carboxylic acid amide] | 2.5 µM and 1.1 µM
2 | NC(=O)c1cccc2c1OCC(c1cncc(F)c1)O2 (single isomer, unassigned) [Cpd 51B, 2-(5-Fluoro-pyridin-3-yl)-2,3-dihydro-benzo[1,4]dioxine-5-carboxylic acid amide] | 20 µM
3 | NC(=O)c1cccc2c1OCC(c1cncc3c1CCC3O)O2 (single isomer, unassigned) [Cpd 52BA, 2-(7-Hydroxy-6,7-dihydro-5H-[2]pyrindin-4-yl)-2,3-dihydro-benzo[1,4]dioxine-5-carboxylic acid amide] | 16 µM
4 | CCS(=O)(=O)NCc1cncc(C2COc3c(C#N)cccc3O2)c1 (single isomer, unassigned) [Cpd 54A, Ethanesulfonic acid [5-(5-cyano-2,3-dihydro-benzo[1,4]dioxin-2-yl)-pyridin-3-ylmethyl]-amide] | 23 µM
5 | N#Cc1cccc2c1OCC(c1cncc(CC(=O)N3CC[C@@H](O)C3)c1)O2 (single isomer, unassigned) [Cpd 55B] | > 30 µM
6 | C[C@H](O)c1c(F)cncc1C1COc2c(cccc2C(N)=O)O1 (single isomer, unassigned) [Cpd 56A] | 14 µM
7 | C[C@H](O)c1c(F)cncc1C1COc2c(cccc2C(N)=O)O1 (single isomer, unassigned) [Cpd 56B] | 14 µM
8 | C[C@@H](O)c1c(F)cncc1C1COc2c(cccc2C(N)=O)O1 (single isomer, unassigned) [Cpd 57A] | 16 µM
9 | C[C@@H](O)c1c(F)cncc1C1COc2c(cccc2C(N)=O)O1 (single isomer, unassigned) [Cpd 57B] | 15 µM
10 | CC(C)(O)c1c(F)cncc1C1COc2c(cccc2C(N)=O)O1 (single isomer, unassigned) [Cpd 58A, 2-[5-Fluoro-4-(1-hydroxy-1-methyl-ethyl)-pyridin-3-yl]-2,3-dihydro-benzo[1,4]dioxine-5-carboxylic acid amide] | 23 µM
11 | CCS(=O)(=O)NC(c1cncc(C2COc3c(cccc3C(N)=O)O2)c1)C1CC1 (single isomer, unassigned) [Cpd 60AA] | > 30 µM
12 | CCS(=O)(=O)NC(c1cncc(C2COc3c(cccc3C(N)=O)O2)c1)C1CC1 (single isomer, unassigned) [Cpd 60AB] | > 30 µM
13 | CCS(=O)(=O)NC(c1cncc(C2COc3c(cccc3C(N)=O)O2)c1)C1CC1 (single isomer, unassigned) [Cpd 60BA] | > 30 µM
14 | CCS(=O)(=O)NC(c1cncc(C2COc3c(cccc3C(N)=O)O2)c1)C1CC1 (single isomer, unassigned) [Cpd 60BB] | > 30 µM
15 | Cc1c(C#N)cncc1C1COc2c(cccc2C(N)=O)O1 (single isomer, unassigned) [Cpd 61A, 2-(5-cyano-4-methyl-pyridin-3-yl)-2,3-dihydro-benzo[1,4]dioxine-5-carboxylic acid amide] | 25 µM
16 | Cc1c(C#N)cncc1C1COc2c(cccc2C(N)=O)O1 (single isomer, unassigned) [Cpd 61B, 2-(5-cyano-4-methyl-pyridin-3-yl)-2,3-dihydro-benzo[1,4]dioxine-5-carboxylic acid amide] | 22 µM
17 | CS(=N)(=O)Cc1cncc(C2COc3c(C#N)cccc3O2)c1 (single isomer, unassigned) [Cpd 62AA, 2-(5-{[imino(methyl)oxo-λ^6-sulfanyl]methyl}pyridin-3-yl)-2,3-dihydro-1,4-benzodioxine-5-carbonitrile] | > 30 µM
18 | CS(=N)(=O)Cc1cncc(C2COc3c(C#N)cccc3O2)c1 (single isomer, unassigned) [Cpd 62AB, 2-(5-{[imino(methyl)oxo-λ^6-sulfanyl]methyl}pyridin-3-yl)-2,3-dihydro-1,4-benzodioxine-5-carbonitrile] | > 30 µM
19 | CS(=N)(=O)Cc1cncc(C2COc3c(C#N)cccc3O2)c1 (single isomer, unassigned) [Cpd 62BA, 2-(5-{[imino(methyl)oxo-λ^6-sulfanyl]methyl}pyridin-3-yl)-2,3-dihydro-1,4-benzodioxine-5-carbonitrile] | 14 µM
20 | CS(=N)(=O)Cc1cncc(C2COc3c(C#N)cccc3O2)c1 (single isomer, unassigned) [Cpd 62BB, 2-(5-{[imino(methyl)oxo-λ^6-sulfanyl]methyl}pyridin-3-yl)-2,3-dihydro-1,4-benzodioxine-5-carbonitrile] | 18 µM
21 | N#Cc1cccc2c1OCC(c1cncc(CNC(=O)C(F)(F)F)c1)O2 (stereo not shown) [Cpd 53, N-[5-(5-Cyano-2,3-dihydro-benzo[1,4]dioxin-2-yl)-pyridin-3-ylmethyl]-2,2,2-trifluoro-acetamide] | 24 µM

Continued by falling IC50, values first:

Row | IC50 | SMILES
22 | 14 µM | CCS(=O)(=O)NCc1cncc(C2COc3c(C#N)cccc3O2)c1 (single isomer, unassigned) [Cpd 54B, Ethanesulfonic acid [5-(5-cyano-2,3-dihydro-benzo[1,4]dioxin-2-yl)-pyridin-3-ylmethyl]-amide]
23 | 13 µM | NC(=O)c1cccc2c1OCC(c1cncc3c1CCC3O)O2 (single isomer, unassigned) [Cpd 52BB, 2-(7-Hydroxy-6,7-dihydro-5H-[2]pyrindin-4-yl)-2,3-dihydro-benzo[1,4]dioxine-5-carboxylic acid amide]
24 | 11 µM | N#Cc1cccc2c1OCC(c1cncc(CC(=O)N3CC[C@@H](O)C3)c1)O2 (single isomer, unassigned) [Cpd 55A]
25 | 4.1 µM | NC(=O)c1cccc2c1OCC(c1cncc3c1CCC3O)O2 (single isomer, unassigned) [Cpd 52AA, 2-(7-Hydroxy-6,7-dihydro-5H-[2]pyrindin-4-yl)-2,3-dihydro-benzo[1,4]dioxine-5-carboxylic acid amide]
26 | 3.3 µM | N#Cc1cccc2c1OCC(c1cncc(C3(O)CCOCC3)c1)O2 (single isomer, unassigned) [Cpd 50B, 2-[5-(4-Hydroxy-tetrahydro-pyran-4-yl)-pyridin-3-yl]-2,3-dihydro-benzo[1,4]dioxine-5-carbonitrile]
27 | 3.2 µM | NC(=O)c1cccc2c1OCC(c1cncc(C(O)C(F)(F)F)c1)O2 (single isomer, unassigned) [Cpd 49AA, 2-[5-(2,2,2-Trifluoro-1-hydroxy-ethyl)-pyridin-3-yl]-2,3-dihydro-benzo[1,4]dioxine-5-carboxylic acid amide]
28 | 3 µM | CC(C)(O)c1c(F)cncc1C1COc2c(cccc2C(N)=O)O1 (single isomer, unassigned) [Cpd 58B, 2-[5-Fluoro-4-(1-hydroxy-1-methyl-ethyl)-pyridin-3-yl]-2,3-dihydro-benzo[1,4]dioxine-5-carboxylic acid amide]
29 | 1.2 µM | NC(=O)c1cccc2c1OCC(c1cncc(F)c1)O2 (single isomer, unassigned) [Cpd 51A, 2-(5-Fluoro-pyridin-3-yl)-2,3-dihydro-benzo[1,4]dioxine-5-carboxylic acid amide]
30 | 1.1 µM | NC(=O)c1cccc2c1OCC(c1cncc(C(O)C(F)(F)F)c1)O2 (single isomer, unassigned) [Cpd 49AB, 2-[5-(2,2,2-Trifluoro-1-hydroxy-ethyl)-pyridin-3-yl]-2,3-dihydro-benzo[1,4]dioxine-5-carboxylic acid amide]
31 | 1.1 µM | Cc1cncc(C2COc3c(cccc3C(N)=O)O2)c1 (single isomer, unassigned) [Cpd 59A, 2-(5-Methyl-pyridin-3-yl)-2,3-dihydro-benzo[1,4]dioxine-5-carboxylic acid amide]
32 | 0.89 µM | Cc1cncc(C2COc3c(cccc3C(N)=O)O2)c1 (single isomer, unassigned) [Cpd 59B, 2-(5-Methyl-pyridin-3-yl)-2,3-dihydro-benzo[1,4]dioxine-5-carboxylic acid amide]
33 | 0.82 µM | NC(=O)c1cccc2c1OCC(c1cncc3c1CCC3O)O2 (single isomer, unassigned) [Cpd 52AB, 2-(7-Hydroxy-6,7-dihydro-5H-[2]pyrindin-4-yl)-2,3-dihydro-benzo[1,4]dioxine-5-carboxylic acid amide]
34 | 0.24 µM | CC(C)C(=O)N1CCC(Oc2cncc(C3COc4c(cccc4C(N)=O)O3)c2)CC1 (single isomer, unassigned) [Cpd 48B, 2-[5-(1-isobutyryl-piperidin-4-yloxy)-pyridin-3-yl]-2,3-dihydro-benzo[1,4]dioxine-5-carboxylic acid amide]
